Measured values published in patent US20240228446A1, “PREPARATION METHOD FOR BICYCLIC COMPOUND AND APPLICATION AS ANTIFUNGAL AGENT” (priority 2021, published 2024).
In brackets after ≈: the same amount, converted by molar mass. Like-named read-outs stand apart in the source and are kept apart here.

How the values were obtained:
[1] = system: Aspergillus fumigatus ATCC MYA-4609; test: Minimal inhibitory concentration (MIC) test on fungal growth (CLSI M38, Aspergillus); assay type: cell-based; conditions: for MIC: Aspergillus fumigatus, read-out: MIC Aspergillus fumigatus ATCC MYA-4609
Procedure: • RPMI1640 medium: Brand: Gibco, article number: 31800-014 • Sabouraud dextrose agar (SDA): Brand: Hope Bio, article number: HB0253-81 • Voriconazole: Brand: Adamas, article number: 22105A • Amphotericin B: Brand: AbCam, article number: ab141199
MIC test was conducted in accordance with the guidelines and requirements of CLSI M27 (for yeasts) and M38 (for Aspergillus).
Strain preparation: The strains were inoculated 1 day in advance by streaking on SDA plates with glycerol strains stored at −80° C. The strains were cultured at 35° C. and 40 to 60% humidity for 18 to 24 hours. Streak inoculation of Aspergillus fumigatus and Cryptococcus neoformans was required to be done 3 days and 2 days in advance, respectively.
Preparation of culture medium and compounds: The liquid culture medium RPMI was prepared with pure water, and 0.165 mol/L MOPS was added to adjust the pH to 7.0. The mixture was filtered with a 0.22 μm-membrane filter, sterilized, and stored at 4° C. (no more than 3 months). 0.85% physiological saline was sterilized at 121° C. for 30 min and then stored at room temperature (no more than 1 week). The compounds were dissolved in DMSO to 12.8 mg/mL and stored at −20° C.
For Aspergillus, 5 mL of physiological saline was added to cover the mycelium, and the spores were gently scraped off with a spreader. The spore suspension was then transferred to a sterile test tube. An appropriate amount of spore suspension was taken and counted under a microscope using a hemocytometer. Spore concentration was adjusted to approximately 0.4 to 5×10^4 spores/mL using RPMI1640 medium.
The compound was diluted to the highest 800 μg/mL (or 400 μg/mL) with DMSO, and a 10-step 2-fold gradient dilution was performed, resulting in 11 concentrations. 2 μL of the gradient-diluted compound was transferred to the corresponding wells of a 96-well plate, and then 198 μL of the inoculum was transferred to the test plate. The plate was incubated at 35° C. for 24 hours (Aspergillus fumigatus and Cryptococcus neoformans were incubated for 48 and 72 hours, respectively).
After the incubation, the growth of the fungi was visually observed. The lowest concentration of the compound that inhibited the growth of yeast by 50% (inhibited Aspergillus by 100%) was defined as the minimum inhibitory concentration (MIC, μg/mL). A magnifying glass or reading at OD530 nm could be used to assist in determining the MIC. Photos were taken of the test plates for record keeping.

[2] = system: Candida albicans ATCC MYA-2876; test: Minimal inhibitory concentration (MIC) test on fungal growth (CLSI M27, yeasts); assay type: cell-based; conditions: for MIC: Candida albicans, read-out: MIC Candida albicans ATCC MYA-2876
Outline: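 Broth microdilution followed CLSI M27 in RPMI1640 buffered with 0.165 M MOPS, pH 7.0, with a final inoculum of 500–2500 CFU/mL. Eleven 2-fold compound concentrations were tested, and plates were incubated 24 h at 35 °C. MIC was the lowest concentration giving 50% growth inhibition, read visually with optional OD530 assistance.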

[3] = lowest concentration inhibiting Aspergillus by 100%, 35° C., 48 hours, RPMI1640
[4] = lowest concentration inhibiting growth of yeast by 50%, 35° C., 24 hours, RPMI1640

Row | Structure (SMILES) | MIC [1, 3] [µg/mL] | MIC [2, 4] [µg/mL] | other results
1 | CC(C)(O)COc1ccc(C23CC(C(F)(F)[C@](O)(Cn4cncn4)c4ccc(F)cc4F)(C2)C3)cc1 [Compound 37A] | 1 (≈ 1.98 µM) | ≤ 0.0039 | –
2 | CC(C)(O)COc1ccc(C23CC(C(F)(F)C(O)(Cn4cncn4)c4ccc(F)cc4F)(C2)C3)cc1 (stereo not shown) [Compound 37] | 2 (≈ 3.96 µM) | ≤ 0.0039 | –
3 | O[C@@](Cn1cnnn1)(c1ccc(F)cc1F)C(F)(F)C12CC(c3ccc(O[C@@H]4CCOC4)cc3)(C1)C2 [Compound 40A] | – | – | MIC Aspergillus fumigatus ATCC MYA-4609 [1, 3]: 4 µg/mL (≈ 7.93 µM); MIC Candida albicans ATCC MYA-2876 [2, 4]: ≤0.0039 µg/mL
4 | O[C@@](Cn1cnnn1)(c1ccc(F)cc1F)C(F)(F)C12CC(c3ccc(O[C@H]4CCOC4)cc3)(C1)C2 [Compound 41A] | – | – | MIC Aspergillus fumigatus ATCC MYA-4609 [1, 3]: 8 µg/mL (≈ 15.9 µM); MIC Candida albicans ATCC MYA-2876 [2, 4]: ≤0.0039 µg/mL
5 | O[C@@](Cn1cnnn1)(c1ccc(F)cc1F)C(F)(F)C12CC(c3ccc(OCC(F)(F)F)nc3)(C1)C2 [Compound 46A] | – | – | MIC Aspergillus fumigatus ATCC MYA-4609 [1, 3]: 2 µg/mL (≈ 3.87 µM); MIC Candida albicans ATCC MYA-2876 [2, 4]: 0.0078 µg/mL (≈ 0.0151 µM)
6 | O[C@](Cn1cncn1)(CC12CC(c3ccc(OCC(F)(F)F)cc3)(C1)C2)c1ccc(F)cc1F [Compound 49A] | 0.5 (≈ 1.04 µM) | ≤ 0.0039 | –
7 | OC(Cn1cncn1)(CC12CC(c3ccc(OCC(F)(F)F)cc3)(C1)C2)c1ccc(F)cc1F (stereo not shown) [Compound 49] | 1 (≈ 2.09 µM) | 0.0078 (≈ 0.0163 µM) | –
8 | O[C@@H](COc1ccc(C23CC(C(F)(F)[C@](O)(Cn4cnnn4)c4ccc(F)cc4F)(C2)C3)cc1)C(F)(F)F [Compound 51B] | – | – | MIC Aspergillus fumigatus ATCC MYA-4609 [1, 3]: 4 µg/mL (≈ 7.32 µM); MIC Candida albicans ATCC MYA-2876 [2, 4]: 0.0078 µg/mL (≈ 0.0143 µM)
9 | OC(Cn1cnnn1)(c1ccc(F)cc1F)C(F)(F)C12CC(c3ccc(OCCN4CCOCC4)cc3)(C1)C2 (stereo not shown) [Compound 65] | – | – | MIC ([1]; 48 h): 32 µg/mL (≈ 58.4 µM); MIC ([2]; 24 h): 0.0078 µg/mL (≈ 0.0142 µM)
10 | N#CCOc1ccc(C23CC(C(F)(F)C(O)(Cn4cnnn4)c4ccc(F)cc4F)(C2)C3)cc1 (stereo not shown) [Compound 69] | – | – | MIC ([1]; 48 h): 4 µg/mL (≈ 8.45 µM); MIC ([2]; 24 h): 0.016 µg/mL (≈ 0.0338 µM)
11 | OC(Cn1cnnn1)(c1ccc(F)cc1F)C(F)(F)C12CC(c3ccc(OC[C@H]4CCCO4)cc3)(C1)C2 (stereo partly shown) [Compound 76] | – | – | MIC ([1]; 48 h): 8 µg/mL (≈ 15.4 µM); MIC ([2]; 24 h): 0.016 µg/mL (≈ 0.0309 µM)
12 | OC(Cn1cncn1)(c1ccc(F)cc1F)C(F)(F)C12CC(c3ccc(OC(F)F)cc3)(C1)C2 (stereo not shown) [Compound 81] | 1 (≈ 2.07 µM) | ≤ 0.0039 | –
13 | O[C@H](COc1ccc(C23CC(C[C@](O)(Cn4cncn4)c4ccc(F)cc4F)(C2)C3)cc1)C(F)(F)F [Compound 90A] | 0.5 (≈ 0.981 µM) | ≤ 0.0039 | –

More lines, main results first:

Row | MIC [1, 3] [µg/mL] | MIC [2, 4] [µg/mL] | Structure (SMILES) | other results
14 | 16 (≈ 31.7 µM) | ≤ 0.0039 | OC(Cn1cnnn1)(c1ccc(F)cc1F)C(F)(F)C12CC(c3ccc(O[C@@H]4CCOC4)cc3)(C1)C2 (stereo partly shown) [Compound 40] | –
15 | 8 (≈ 15.9 µM) | 0.0078 (≈ 0.0155 µM) | OC(Cn1cnnn1)(c1ccc(F)cc1F)C(F)(F)C12CC(c3ccc(O[C@H]4CCOC4)cc3)(C1)C2 (stereo partly shown) [Compound 41] | –
16 | 2 (≈ 3.78 µM) | 0.0078 (≈ 0.0148 µM) | OCC(F)(F)COc1ccc(C23CC(C(F)(F)[C@](O)(Cn4cnnn4)c4ccc(F)cc4F)(C2)C3)cc1 [Compound 50A] | –
17 | 4 (≈ 7.57 µM) | 0.016 (≈ 0.0303 µM) | OCC(F)(F)COc1ccc(C23CC(C(F)(F)C(O)(Cn4cnnn4)c4ccc(F)cc4F)(C2)C3)cc1 (stereo not shown) [Compound 50] | –
18 | 1 (≈ 1.83 µM) | ≤ 0.0039 | O[C@H](COc1ccc(C23CC(C(F)(F)[C@](O)(Cn4cnnn4)c4ccc(F)cc4F)(C2)C3)cc1)C(F)(F)F [Compound 51A] | –
19 | 4 (≈ 7.32 µM) | 0.0078 (≈ 0.0143 µM) | OC(COc1ccc(C23CC(C(F)(F)C(O)(Cn4cnnn4)c4ccc(F)cc4F)(C2)C3)cc1)C(F)(F)F (stereo not shown) [Compound 51] | –
20 | 8 (≈ 15.8 µM) | 0.016 (≈ 0.0316 µM) | COCCCOc1ccc(C23CC(C(F)(F)C(O)(Cn4cnnn4)c4ccc(F)cc4F)(C2)C3)cc1 (stereo not shown) [Compound 61] | –
